Experimental findings from ChEMBL document CHEMBL4024703, “Recent Progress in the Development of Transglutaminase 2 (TGase2) Inhibitors” (J Med Chem, 2017) are described below.

What is called inhibition in vivo is the relative decrease from the control value, in per cent. In general, IC50 refers to the midpoint of a concentration-inhibition curve.

Data set [1] relates to Mus musculus. The data set is described as follows: Antihypertensive activity in C57BL/6 mouse angiotensin 2-induced hypertensive nephrosclerosis model assessed as reduction in collagen deposition in blood vessels at 25 mg/kg/day administered sc with angiotensin 2 for 14 days by Sirius red/collagen staining based assay. In kind it is functional. The following applies: C57BL/6, sc, 336 h.

In data set [2] the test system is Mus musculus. The data set can be described thus: Antihypertensive activity in C57BL/6 mouse angiotensin 2-induced hypertensive nephrosclerosis model assessed as reduction in collagen deposition in kidney at 25 mg/kg/day administered sc with angiotensin 2 for 14 days by Sirius red/collagen staining based assay. It is filed as functional. The following applies: C57BL/6, sc, 336 h.

Data set [3] concerns the target T1, Protein-glutamine gamma-glutamyltransferase (Homo sapiens, UniProt P21980).
T1 sequence (P21980 whole entry): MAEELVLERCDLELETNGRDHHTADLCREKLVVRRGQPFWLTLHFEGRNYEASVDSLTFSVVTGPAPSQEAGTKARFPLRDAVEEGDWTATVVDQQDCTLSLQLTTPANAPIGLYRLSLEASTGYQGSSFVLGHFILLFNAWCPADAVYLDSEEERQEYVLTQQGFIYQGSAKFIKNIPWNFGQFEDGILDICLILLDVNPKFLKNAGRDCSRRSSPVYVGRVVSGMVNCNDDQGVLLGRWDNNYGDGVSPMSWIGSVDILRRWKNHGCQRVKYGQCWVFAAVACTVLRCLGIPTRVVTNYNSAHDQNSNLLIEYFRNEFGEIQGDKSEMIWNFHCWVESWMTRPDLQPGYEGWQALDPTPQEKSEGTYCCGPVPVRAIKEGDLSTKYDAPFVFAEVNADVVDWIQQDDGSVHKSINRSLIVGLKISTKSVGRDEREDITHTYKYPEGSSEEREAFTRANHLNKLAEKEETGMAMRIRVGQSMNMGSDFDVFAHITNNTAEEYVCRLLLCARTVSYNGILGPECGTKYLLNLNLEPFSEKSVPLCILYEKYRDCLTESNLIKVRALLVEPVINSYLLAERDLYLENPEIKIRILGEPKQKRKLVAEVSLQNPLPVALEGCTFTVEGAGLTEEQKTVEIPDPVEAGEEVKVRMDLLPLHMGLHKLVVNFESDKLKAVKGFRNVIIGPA
The data set can be described thus: Inhibition of recombinant human TG2 by fluorescence assay.

A short description of data set [4]: Metabolic stability in Wistar rat blood plasma after 15 mins by HPLC analysis. In kind it is ADME, cell-free. The following applies: read-out: Stability.
Data set [5] in a line: Metabolic stability in Wistar rat blood plasma after 45 mins by HPLC analysis. Particulars: read-out: Stability. In kind it is ADME, cell-free.
Data set [6] is filed under the species Homo sapiens. The data set can be described thus: Selectivity ratio of IC50 for human TG1 to IC50 for human TG2.
Data set [7] is filed under the species Homo sapiens. The data set can be described thus: Selectivity ratio of IC50 for human TG6 to IC50 for human TG2.
For data set [8], the species on record is Homo sapiens. The data set can be described thus: Selectivity ratio of IC50 for human TG3 to IC50 for human TG2.
For data set [9], the species on record is Homo sapiens. The data set can be described thus: Selectivity ratio of IC50 for human F13a to IC50 for human TG2.

Consider `C=CC(=O)NCC(=O)N1CCN(S(=O)(=O)c2cccc3c(N(C)C)cccc23)CC1`, for which the inhibition in vivo at 25 mg/kg/day came to 45% in the data set on Mus musculus [1] and 40% in the data set on Mus musculus [2]. In data set [3], the IC50 is 6 nM.

With `C=CC(=O)NCCCC[C@H](NC(=O)Cc1ccccc1)C(=O)N1CCN(c2cccc(C)n2)CC1`, the remaining at 0.25 h in [4] is 65%. In addition, the remaining at 0.75 h in [5] came out at 29%.

Take `CCC(CC)CNC(=O)Cn1cccc(NC(=O)[C@H](CC/C=C/C(=O)OC)NC(=O)c2cncn2C)c1=O`: the Ratio IC50 in the data set listed under Homo sapiens [6], in the data set filed under Homo sapiens [7], in the data set listed under Homo sapiens [8] and in the data set listed under Homo sapiens [9] was more than 100 throughout.
